Where “and” joins values, the source holds several entries; their conditions need not be identical. Equal values may be shown once. Read-outs that look alike come from different tables or passages of the source.

In series [1] the test system is adenovirus strain Type 5, strain adenoid 75. Nature of the series: Adenovirus plaque formation assay in skin fibroblast cell line SF. It is filed as cell-based, human adenovirus. The text has this: (§1) Virus stocks. The HIV-1 strain used in this study was HTLV-IIIB (Uckun et al., 1998 Antimicro. Agents and Chemother., 42:383-388). The non-HIV viruses included in the present study were the gancyclovir-sensitive cytomegalovirus (CMV) strain AD169 (ATCC VR-538); acyclovir-sensitive herpes simplex virus (HSV) Type I strain HF (ATCC VR-260); acyclovir-sensitive HSV Type II strain G (ATCC VR-734); adenovirus strain Type 5, strain adenoid 75 (ATCC VR-5); enterovirus strain, ECHO 30, strain Bastianni (ATCC VR-322); and respiratory syncytial virus (RSV), strain Long (ATCC VR-26).
(§2) Plaque formation assays. Plaque assays were used to examine the activity of the compounds against non-HIV viruses. The skin fibroblast cell line SF (ATCC CRL-2097) was used as a target for AD169, Adenovirus Type 5. […] cell line (ATCC CCL-81) was used as a target for HSV HF and G. The HEP-2 cell line (ATCC CCL-23) was used as a target for the RSV strain Long. These cell lines were cultured at 1×10^5 cells/well in 24-well (all but ECHO 30-infected SF) or 6-well (ECHO 30-infected SF) tissue culture plates with 0.9% methylcellulose or 0.4% SeaPlaque agarose semisolid support. Minimum Essential Medium (MEM) with Earle's salts (Gibco), L-glutamine, non-essential amino acids, 2% heat-inactivated fetal bovine serum, 1% penicillin/streptomycin, and 0.05% gentamicin served as the culture medium. The incubation times were 3 days for HF, G, ECHO 30, and Long; and 7 days for AD169 and Adenovirus Type 5. Plaque counting was performed with a 20X dissecting microscope for AD169, Type 5, ECHO 30, and RSV Long, and with a light box for HF and G. The fixative agent was crystal violet for all viruses, except for the CMV strain AD169 for which methylene blue was used. Percent inhibition of plaque formation was calculated by comparing the plaque numbers from the test substance-treated infected cells with the plaque numbers from untreated infected cells (i.e., virus controls). The IC50 values were determined using the Statview statistics program (SAS Institute, Inc., Cary, N.C.).
Statistical analysis. Each drug was tested at 6-7 different concentrations ranging from 0.0001 μM to 100 μM. Each assay was set up in triplicate wells and repeated 1-3 times. An IC50 value was calculated from each set of triplicate wells using nonlinear regression modeling of the exponential form of the linearized equation (Statview, SAS Institute, Inc., Cary, N.C.). […] The IC50 values obtained were correlated to the log transformed hydrolysis rate constants by fitting a linear model (JMP Software, SAS Institute Inc., Cary, N.C.). P-values less than 0.05 were deemed significant.
The skin fibroblast cell line SF (ATCC CRL-2097) was used as a target for AD169, Adenovirus Type 5, and ECHO 30; the VERO cell line (ATCC CCL-81) was used as a target for HF and G; and the HEP-2 cell line (ATCC CCL-23) was used as target for the RSV strain Long. Results are expressed as the average IC50 values in μM. Stavudine (STV) was included as a control.

The nature of the next series: Solubility. It is filed as physicochemical. The settings on record: read-out: Solubility.
For the next series, the system named is HIV-1 strain HTLV-IIIB. Kind of series: In vitro anti-HIV-1 activity, p24 antigen assay in PBMNC. It is filed as cell-based. The settings on record: Human immunodeficiency virus 1, HIV-1, HTLV-IIIB, day 7.
Excerpt: as §1
In vitro assays of anti-HIV-1 activity. Normal human peripheral blood mononuclear cells (PBMNC) from HIV-negative donors were cultured 72 hours in RPMI 1640 supplemented with 20% (v/v) heat-inactivated fetal bovine serum (FBS), 3% interleukin-2, 2 mM L-glutamine, 25 mM HEPES, 2 g/L NaHCO3, 50 Tg/mL gentamicin, and 4 Tg/mL phytohemagglutinin prior to exposure to HIV-1 at a multiplicity of infection (MOI) of 0.1 during a 1 hour adsorption period at 37° C. in a humidified 5% CO2 atmosphere. Subsequently, cells were cultured in 96-well microtiter plates (100 TL, 2×10^6 cells/mL) in the presence of various concentrations of compounds 113 or 609. Aliquots of culture supernatants were removed from the wells on the seventh day after infection for p24 antigen assays, as previously described. […] Percent viral inhibition was calculated by comparing the p24 values from untreated infected cells (i.e., virus controls).
Statistical analysis. […] An IC50 value was calculated from each set of triplicate wells using nonlinear regression modeling of the exponential form of the linearized equation (Statview, SAS Institute, Inc., Cary, N.C.). Hydrolysis rates were determined by fitting single exponential decay equations to the disappearance of the compound in alkali conditions (all R^2 values greater than 0.85). […]

For the next series, the system named is HSV Type II strain G. Nature of the series: HSV-2 plaque formation assay in VERO cells. It is filed as cell-based, herpes simplex virus Type II. The settings on record: Human alphaherpesvirus 2, HSV-2, Strain G.
Excerpt: as §1
(§3) Plaque formation assays. Plaque assays were used to examine the activity of the compounds against non-HIV viruses. The skin fibroblast cell line SF (ATCC CRL-2097) was used as a target for AD169, Adenovirus Type 5. […] cell line (ATCC CCL-81) was used as a target for HSV HF and G. The HEP-2 cell line (ATCC CCL-23) was used as a target for the RSV strain Long. These cell lines were cultured at 1×10^5 cells/well in 24-well (all but ECHO 30-infected SF) or 6-well (ECHO 30-infected SF) tissue culture plates with 0.9% methylcellulose or 0.4% SeaPlaque agarose semisolid support. […] Percent inhibition of plaque formation was calculated by comparing the plaque numbers from the test substance-treated infected cells with the plaque numbers from untreated infected cells (i.e., virus controls). The IC50 values were determined using the Statview statistics program (SAS Institute, Inc., Cary, N.C.).
(§4) Statistical analysis. […] An IC50 value was calculated from each set of triplicate wells using nonlinear regression modeling of the exponential form of the linearized equation (Statview, SAS Institute, Inc., Cary, N.C.). […]
(§5) The skin fibroblast cell line SF (ATCC CRL-2097) was used as a target for AD169, Adenovirus Type 5, and ECHO 30; the VERO cell line (ATCC CCL-81) was used as a target for HF and G; and the HEP-2 cell line (ATCC CCL-23) was used as target for the RSV strain Long. Results are expressed as the average IC50 values in μM. […]

Series [2] can be described thus: Octanol/water partition coefficient, shake flask method. It is filed as physicochemical. As to conditions: 4 hours at room temperature, read-out: Oct/Water (log P). As for the experimental part:
HPLC purification was achieved using a reverse-phase Lichrospher column (250×4 mm, Hewlett-Packard, RP-18, Cat. #79925) and an isocratic flow (1 ml/minute) consisting of water (70%) and acetonitrile (30%). Melting points were determined using a Melt John's apparatus and are uncorrected. Column chromatography was performed using silica gel obtained from Baker Company. The octanol/water partition coefficient was determined by the shake flask method. The phosphoramidate analogs were added to 2 ml of water and 2 ml of octanol in a glass vial. The mixture was shaken for 4 hours at room temperature. The two phases were carefully separated and filtered through a Millipore filter and analyzed by HPLC. The partition coefficient was calculated using the ratio of the area under the curve for octanol and water, respectively.

Series [3] relates to cytomegalovirus (CMV) strain AD169. Nature of the series: CMV plaque formation assay in SF cells. Type of series: cell-based. As to conditions: Human betaherpesvirus 5.
Excerpt: as §1, §3, §4, §5

Series [4] in a line: Hydrolysis rate in alkali conditions. Type of series: physicochemical. As for the experimental part: Statistical analysis. Each drug was tested at 6-7 different concentrations ranging from 0.0001 μM to 100 μM. Each assay was set up in triplicate wells and repeated 1-3 times. An IC50 value was calculated from each set of triplicate wells using nonlinear regression modeling of the exponential form of the linearized equation (Statview, SAS Institute, Inc., Cary, N.C.). Hydrolysis rates were determined by fitting single exponential decay equations to the disappearance of the compound in alkali conditions (all R^2 values greater than 0.85). The IC50 values obtained were correlated to the log transformed hydrolysis rate constants by fitting a linear model (JMP Software, SAS Institute Inc., Cary, N.C.). P-values less than 0.05 were deemed significant.

In the next series the test system is skin fibroblasts. Kind of series: Cytotoxicity in skin fibroblasts (plaque assay). It is filed as cell-based. As to conditions: ADV plaque formation assay. The procedure: as §2, with “Plaque counting was performed with a 20X dissecting microscope for AD169, Type 5, ECHO 30, and RSV Long, and with a light box for HF and G. The fixative agent was crystal violet for all viruses, except for the CMV strain AD169 for which methylene blue was used.” left out

Series [5] relates to respiratory syncytial virus (RSV), strain Long. Nature of the series: RSV plaque formation assay in HEP-2 cells. Type of series: cell-based. The settings on record: human respiratory syncytial virus, HEp-2.
Excerpt: as §1, §3, §4, §5

In series [6] the test system is enterovirus strain, ECHO 30, strain Bastianni. Kind of series: Enterovirus plaque formation assay in SF cells. Type of series: cell-based.
Excerpt: as §1, §3, §4, §5

The subject of series [7] is herpes simplex virus (HSV) Type I strain HF. Nature of the series: HSV-1 plaque formation assay in VERO cells. It is filed as cell-based. As to conditions: Human alphaherpesvirus 1, HSV-1, Strain HF.
Excerpt: as §1, §3, §4, §5

On to `COC(=O)C(C)NP(=O)(OCC1C=CC(n2cc(C)c(=O)[nH]c2=O)O1)Oc1ccc(Cl)cc1` (stereo not drawn) [Compound 609, 5′-[4-Chlorophenylmethoxyalaninyl phosphate]-2′, 3′-didehydro-3′-deoxy thymidine], for which the IC50 (as a rule, the concentration that gives 50% inhibition) in [1] (Adenovirus Type 5, 7 days, ± s.e., read-out: IC50, ADV-induced plaque formation) was 26.7 nM and 27 nM; in series [1] (read-out: IC50, ADV-induced plaque formation, Adenovirus Type 5, 7 days, ± s.e.) it was 2.7 ± 3 nM; with HIV-1 strain HTLV-IIIB, 1 nM; in the series with HSV Type II strain G, over 100000 nM; in series [3], over 100000 nM; in series [5] it was over 100000 nM. Moreover, the IC50 in series [6] and in series [7] was over 100000 nM throughout. In addition, the Solubility – broadly, how much of the substance goes into solution per volume – in “Solubility” was determined as 1400 µg/mL. Also, the logP at 4 h in [2] was determined as 0.64. In addition, in [4], the “Hydrolysis Rate” value was 0.0216 min⁻¹. Further, the “cytotoxicity (in words)” value in the series on skin fibroblasts is listed as “without cytotoxicity”.

The record behind these values is US20030236218A1, “Aryl phosphate derivatives of d4T with selective activity against adenovirus and HIV” (priority 2002, published 2003).
